Several values for one entry are separate records, joined by “and”; a condition that tells them apart may be missing. Identical values can stand only once.
Key:
[1] = Plasma exposure (AUC) of LD and CD after SC infusion, oral IR tablet, and SC + oral coadministration of LD/CD; assay type: in vivo
Text: A test was run in order to assess the plasma exposure of levodopa (LD) following the coadministration of LD and carbidopa (CD) in both subcutaneous (SC) and oral administrations. Accordingly, results obtained from a combined SC+oral administration were compared to results obtained from SC administration alone and from oral administration alone. An additive plasma exposure and PK profile was expected, i.e., it was expected that the SC+oral coadministration would provide results equal to the additive results of the SC and oral administrations, when each was administered separately.
16 healthy subjects (18-50 years) were treated in a crossover manner, i.e., sequentially, with a washout period of 6 days between the following two treatments: • Treatment A: A total dose of 180/22.5 mg LD/CD (formulation A) was administered by SC infusion over the course of 8 hours, at a steady infusion rate. • Treatment B: An immediate release (IR) tablet of 100/25 mg LD/CD was administered orally at time 0 h.
Following a 32 hour washout period, the same 16 healthy subjects were administered with LC/CD both orally and subcutaneously according to the following treatment: • Treatment C: A dose of 153.6/19.2 LD/CD (formulation A) was administered by SC infusion over the course of 8 hours, at a steady infusion rate, combined with a single co-administration of an oral IR LD/CD 100/25 mg tablet, 4 hours after the initiation of the infusion. Total LD/CD dose: 253.6/44.2 mg.
The normalized AUC0-8 of LD and CD of Treatment C, resulting from the combined SC and oral treatment, as described above, was calculated and compared to the sum of the normalized LD and CD AUCs obtained from Treatment A (AUC0-8 resulting from 8 h SC infusion) and Treatment B (AUC0-4 resulting from one IR oral tablet).

[2] = Procedure: The objective of this study was to determine the pharmacokinetics (PK) of levodopa (LD) in domestic pigs following continuous subcutaneous (SC) infusion of a levodopa prodrug, exemplified using LD-Tyr, administered concomitantly with oral Levodopa.
Table 6 provides the LD-Tyr formulation tested in this study: […]
The study consisted of 3 dosing sessions in which 5 female pigs (Swine/Landrace×large White, ˜40-50 kg each) were treated with the LD-Tyr solution of Table 6 and/or Sinemet JR oral tablets (CD/LD 25/100 mg tablet) in a cross-over design with up to 4-day washout period between dosing sessions, as detailed in the following tables:
As presented in Tables 7 and 8 above, the study included the following three test groups: • G1—received only SC LD-Tyr (600 mg total daily dose); • G2—received only oral LD (300 mg total daily dose); and • G3—received both SC LD-Tyr (600 mg total daily dose) and oral LD (200 mg total daily dose).
Blood samples for the determination of LD-Tyr (in groups 1 and 3), as well as LD and CD plasma levels (in all groups) were collected from the pigs at the following timepoints: • 0 (pre-dose), 30 min, 1 h, 2 h, 3 h, 4 h, 4.5 h, 5 h, 6 h, 7 h, 8 h, 8.5 h, 9 h, 10 h, 11 h, 13 h, 15 h 18 h following treatment initiation. Tablets were administered before blood collection (time 0, 4 and 8 h).
Plasma samples were analyzed for concentration of LD-Tyr (groups 1 and 3), as well as LD and CD (for all groups) using a qualified LC-MS/MS analytical method.
PK parameters (at least Cmax, tmax, t1/2, AUC) for LD-Tyr, LD and CD were calculated by noncompartmental methods using appropriate software (e.g. Phoenix® WinNonlin®). Individual and mean was calculated for quantitative parameters.
The LD exposure obtained from the SC infusion is considered to be the baseline.

[3] = geomean of group, Treatment A SC 8 h, normalized × 0.853
[4] = geomean of group, oral IR tablet 100/25 mg LD/CD

## C[C@@](Cc1ccc(O)c(O)c1)(NN)C(=O)O [CD, carbidopa]
[1]; geomean of group, SC + oral
  CD: 4. Treatment C AUC (0-8) [Observed], Geomean Group: 1051
[1]; [3]
  CD: 1. Treatment A AUC (0-8) × 0.853, Geomean Group: 900
[1]; [4]
  CD: 2. Treatment B AUC (0-4), Geomean Group: 309
[1]; human, in vivo
  CD: 3. Combined 1 + 2 [Estimated], Geomean Group: 1209
  CD: Observed (C) vs. Additive Ratio, Geomean Group (mean ratio): 0.869
  CD: Observed (C) vs. Additive Ratio, Geomean Individual: 0.866
[1]; individual subject (ID), SC 153.6/19.2 LD/CD over 8 h + oral IR LD/CD 100/25 mg tablet at 4 h
  CD: 4. Treatment C AUC (0-8) [Observed]: 1086
[1]; individual subject (ID), Treatment A: 180/22.5 mg LD/CD formulation A, SC infusion over 8 h, AUC × 0.853
  CD: 1. Treatment A AUC (0-8) × 0.853: 955 and 988 and 925
[1]; individual subject (ID), oral IR tablet 100/25 mg LD/CD at 0 h
  CD: 2. Treatment B AUC (0-4): 318

## N[C@@H](Cc1ccc(O)c(O)c1)C(=O)O [LD, L-3,4-dihydroxyphenylalanine]
[1]; geomean of group, SC 153.6/19.2 LD/CD over 8 h + oral 100/25 mg tablet at 4 h
  LD: 4. Treatment C AUC (0-8) [Observed], Geomean Group: 4817
[1]; [3]
  LD: 1. Treatment A AUC (0-8) × 0.853, Geomean Group: 2412
[1]; [4]
  LD: 2. Treatment B AUC (0-4), Geomean Group: 1458
[1]; geomean of group, sum A + B
  LD: 3. Combined 1 + 2 [Estimated], Geomean Group: 3870
[1]; geomean of individual ratios
  LD: Observed (C) vs. Additive Ratio, Geomean Individual: 1.240
[1]; group geomean, Treatment C vs. A+B
  LD: Observed (C) vs. Additive Ratio, Geomean Group (mean ratio): 1.245
[1]; individual subject (ID), Treatment A: 180/22.5 mg LD/CD formulation A, SC infusion over 8 h, AUC × 0.853 to equal SC dose of Treatment C
  LD: 1. Treatment A AUC (0-8) × 0.853: 2236 and 2266 and 2218
[1]; individual subject (ID), Treatment C: 153.6/19.2 LD/CD formulation A SC over 8 h + oral IR LD/CD 100/25 mg tablet at 4 h
  LD: 4. Treatment C AUC (0-8) [Observed]: 6325 and 5031 and 5059 and 4610 and 3961
[1]; individual subject (ID), sum of normalized Treatment A AUC and Treatment B AUC
  LD: 3. Combined 1 + 2 [Estimated]: 3087
[2]; animal 115 excluded
  Synergism ratio, Mean: 1.57
  Synergism ratio, Median: 1.49
[2]; individual pig
  Synergism ratio (actual / predicted LD AUC of oral add-ons): above 1
[2]; pigs, SC LD-Tyr/CD + oral LD/CD
  Increase of LD plasma exposure by oral add-ons, on top of LD exposure from SC administration alone, versus predicted (average): over 50%
